Experimental data from US20060089395A1, “Nf-kb activation inhibitors” (priority 2002, published 2006).
Entries after “also recorded” stand apart in the source; their conditions may differ. Where two headings read alike, the source gives them in different places.

Legend:
IL-8 = assay: Inhibition of IL-8 production by TNFα stimulation in synovial fibroblasts derived from a rheumatoid patient (ELISA); assay type: cell-based, human; conditions: for IC50: synovial fibroblasts, 10 ng/ml TNFα, 3 days, read-out: Inhibition against Mediator Release IC50(nM) IL-8; for inhibition of the production of IL-8 (in words): rheumatic patient-derived synovial fibroblasts under TNFα stimulation
Description: (§1) Synovial fibroblasts (Human Synoviocyte (RA-Positive), Toyobo, T4040-05) were cultured for 3 days in a medium containing 10 ng/ml of TNFα and a test compound. IL-6 and IL-8 in the supernatant were measured by the ELISA method, and PGE2 (prostaglandin E2) was measured by the EIA method.

PGE2 = assay: Inhibition of PGE2 production by TNFα stimulation in synovial fibroblasts derived from a rheumatoid patient (EIA); assay type: cell-based, human; conditions: for IC50: synovial fibroblasts, 10 ng/ml TNFα, 3 days, read-out: Inhibition against Mediator Release IC50(nM) PGE2; for inhibition of the production of PGE2 (in words): rheumatic patient-derived synovial fibroblasts under TNFα stimulation
Description: as §1

NF-κ B = assay: Inhibitory activity of NF-κ B activation, luciferase reporter assay in HepG2 under TNF-α stimulation; assay type: cell-based, human
In short: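 Readout is firefly luciferase luminescence, expressed as inhibition versus compound-free wells. Before this, HepG2 cells carrying a transiently transfected 5×NF-κB-site luciferase plasmid (6–24 h post-transfection) received test compound plus TNF-α (40 ng/ml) for 4 h.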

[1] = tested on: Vascular smooth muscle cells of normal coronary artery (Cryo CASMC); assay: Inhibitory test against proliferation of vascular smooth muscle cells of normal coronary artery under proliferation stimulation (MTS assay); assay type: cell-based; conditions: FGF and EGF stimulation, 72 hours
Description: Vascular smooth muscle cells of normal coronary artery (Cryo CASMC) were cultured for 2 hours in the presence or absence of a test substance in DMEM medium containing 0.5% of FBS and insulin (5 u g/ml). Then, FGF and EGF were added for proliferation stimulation. The mixture was cultured for 72 hours and proliferation of the cells were measured by the MTS assay. The results aree shown in the following

IL-6 = assay: Inhibition of IL-6 production by TNFα stimulation in synovial fibroblasts derived from a rheumatoid patient (ELISA); assay type: cell-based, human; conditions: for IC50: synovial fibroblasts, 10 ng/ml TNFα, 3 days, read-out: Inhibition against Mediator Release IC50(nM) IL-6; for inhibition of the production of IL-6 (in words): rheumatic patient-derived synovial fibroblasts under TNFα stimulation
Description: as §1

[2] = tested on: type II collagen induced arthritis; assay: Inhibitory test against type II collagen induced arthritis in mice; assay type: in vivo, Balb/c mice; conditions: 10 mg/kg intraperitoneally once in two days; day 44; score of the control = 100%
Description: Balb/c mice were immunized with heterologous type II collagen and Freund's complete adjuvant by subcutaneous or intraperitoneal injection. At 21 days after the treatment, these mice were immunized again with heterologous type II collagen and Freund's incomplete adjuvant by subcutaneous or intraperitoneal injection to develop arthritis.
A test substance suspended in an appropriate diluent or the diluent alone (negative control) was administered intraperitoneally once in two days from the day of the first immunization, and as for arthritis developed after the second immunization, clinical symptoms of each ankle joint of all foots were recorded day after day as numerous scores. When the score of the control measured on day 44 after administration of 10 mg/kg of the medicament of the present invention was expresses as 100%, rates of exacerbation (%) of the clinical symptoms of arthritis were 37.5 (Compound No. 4), 76.5 (Compound No. 90), 56.2 (Compound No. 11), 64.0 (Compound No. 88), and 0.0 (Compound No. 83).

[3] = Homo sapiens, 1 μg/mL, HepG2, TNF-α (40 ng/ml), 4 hours, read-out: Inhibitory Ratio of NF-κ B Activation(%) Drug Concentration 1 μg/mL
[4] = Homo sapiens, 10 μg/mL, HepG2, TNF-α (40 ng/ml), 4 hours, read-out: Inhibitory Ratio of NF-κ B Activation(%) Drug Concentration 10 μg/mL
[5] = 1 μg/mL, HepG2, TNF-α (40 ng/ml), 4 hours
[6] = 10 μg/mL, HepG2, TNF-α (40 ng/ml), 4 hours

| Structure (SMILES) | IC50 (IL-8; Homo sapiens, Fibroblast, 72 h) [nM] | IC50 (PGE2; Homo sapiens, Fibroblast, 72 h) [nM] | inhibition at 0.1 µg/mL (NF-κ B; Homo sapiens, HepG2, 4 h, 0.1 μg/ml, comparison table, reporter assay, read-out: Inhibitory Ratio of NF-κB Activation (%) 0.1 μg/ml) [%] | inhibition at 1 µg/mL (NF-κ B; Homo sapiens, HepG2, 4 h, 1 μg/ml, comparison table, reporter assay, read-out: Inhibitory Ratio of NF-κB Activation (%) 1 μg/ml) [%] | inhibition at 10 µg/mL (NF-κ B; Homo sapiens, HepG2, 4 h, 10 μg/ml, comparison table, reporter assay, read-out: Inhibitory Ratio of NF-κB Activation (%) 10 μg/ml) [%] | inhibition at 1 µg/mL (NF-κ B; [3]) [%] | inhibition at 10 µg/mL (NF-κ B; [4]) [%] | Inhibitory Ratio of Proliferation(%) Compound Concentration 250 nM [1] [%] | Inhibitory Ratio of Proliferation(%) Compound Concentration 500 nM [1] [%] | IC50 (IL-6; Homo sapiens, Fibroblast, 72 h) [nM] | IC50 (IL-8) [nM] | IC50 (PGE2) [nM] | Inhibitory Ratio of NF-κ B Activation(%) Drug Concentration 1 μg/mL (NF-κ B; [5]) [%] | Inhibitory Ratio of NF-κ B Activation(%) Drug Concentration 10 μg/mL (NF-κ B; [6]) [%] | IC50 (IL-6) [nM] | inhibition of the production of IL-8 (in words) (IL-8) | inhibition of the production of PGE2 (in words) (PGE2) | rates of exacerbation (%) of the clinical symptoms of arthritis [2] [%] | inhibition of the production of IL-6 (in words) (IL-6) |
| --- | --- | --- | --- | --- | --- | --- | --- | --- | --- | --- | --- | --- | --- | --- | --- | --- | --- | --- | --- |
| CC(C)(C)C(=O)c1sc(NC(=O)c2cc(Cl)ccc2O)nc1C(C)(C)C [Compound No.199, 5-Chloro-N-{4-[(1,1-dimethyl)ethyl]-5-[(2,2-dimethyl)propionyl]thiazol-2-yl)-2-hydroxybenzamide] | 458 | 68 | 19.6 | 96.4 | 98.4 | 96.4 | 98.4 | 35.1 | 84.6 | 309 | – | – | – | – | – | – | – | – | – |
| O=C(Nc1cc(C(F)(F)F)cc(C(F)(F)F)c1)c1cc(-c2ccccc2)ccc1O [Compound No. 23] | – | – | – | – | – | – | – | 31.6 | 89 | – | 876 | 809 | 91.8 | 96.8 | 540 | – | – | – | – |
| O=C(Nc1cc(C(F)(F)F)cc(C(F)(F)F)c1)c1ccc(Cl)cc1O [Compound No. 51] | – | – | – | – | – | – | – | 26.2 | 86.6 | – | 832 | 863 | 90.5 | 98.2 | 874 | – | – | – | – |
| O=C(Nc1cc(C(F)(F)F)ccc1C(F)(F)F)c1cc(Br)ccc1O [Compound No. 83] | – | – | – | – | – | – | – | 27.1 | 87.9 | – | 62 | < 10 | 95.7 | 98.3 | < 10 | potently inhibited; also recorded: strongly inhibited | potently inhibited; also recorded: strongly inhibited | 0.0 | potently inhibited; also recorded: strongly inhibited |
| O=C(Nc1cc(C(F)(F)F)ccc1Cl)c1cc(Cl)ccc1O [Compound No. 88, 5-chloro-N-[2-chloro-5-(trifluoromethyl)phenyl]-2-hydroxybenzamide] | – | 33 | – | – | – | 94.8 | 97.1 | – | – | 88 | – | – | – | – | – | potently inhibited; also recorded: strongly inhibited | potently inhibited; also recorded: strongly inhibited | 64.0 | potently inhibited; also recorded: strongly inhibited |
| O=C(Nc1cc(C(F)(F)F)ccc1Cl)c1cc(Br)ccc1O [Compound No. 90] | – | – | – | – | – | – | – | 89.5 | 95.2 | – | 373 | 38 | 88.9 | 94.1 | 24 | potently inhibited; also recorded: strongly inhibited | potently inhibited; also recorded: strongly inhibited | 76.5 | potently inhibited; also recorded: strongly inhibited |
| COc1cc(NC(=O)c2cc(Br)ccc2O)cc(C(F)(F)F)c1 [Compound No. 93] | – | – | – | – | – | – | – | 12.1 | 87.2 | – | 753 | 47 | 84.5 | 97.2 | 130 | – | – | – | – |
| CC(C)(C)c1cc(NC(=O)c2cc(Br)ccc2O)cc(C(C)(C)C)c1 [Compound No. 140] | – | – | – | – | – | – | – | 4.3 | 86.1 | – | – | 21 | 70.9 | 82.0 | 808 | – | – | – | – |
| CC(C)(C)C(=O)c1sc(NC(=O)c2cc(Br)ccc2O)nc1C(C)(C)C [Compound No. 201] | – | – | – | – | – | – | – | 59.8 | 84.4 | – | 599 | 53 | 86.8 | 97.5 | 317 | – | – | – | – |
| CC(C)(C)c1nc(NC(=O)c2cc(Br)ccc2O)sc1N1CCN(c2ccccc2)CC1 [Compound No. 207, 5-Bromo-N-{4-[(1,1-dimethyl)ethyl]-5-(4-phenylpiperazin-1-yl)thiazol-2-yl}-2-hydroxybenzamide] | 832 | 834 | – | – | – | 92.5 | 95.9 | 52.5 | 84 | 641 | – | – | – | – | – | – | – | – | – |
| O=C(Nc1cc(C(F)(F)F)ccc1C(F)(F)F)c1cc(Br)ccc1O [Compound No. 268] | – | – | – | – | – | – | – | 5.6 | 9.8 | – | – | – | 87.1 | 98.4 | – | – | – | – | – |
| O=C(Nc1cc(C(F)(F)F)cc(C(F)(F)F)c1)c1cc(Br)ccc1O [compound 6] | – | – | – | – | – | – | – | 88.0 | 94.8 | – | 351 | 358 | 94.9 | 98.6 | 352 | – | – | – | – |
